Experimental data published in patent publication US20220185822A1, “SELECTIVE LIGANDS OF HUMAN CONSTITUTIVE ANDROSTANE RECEPTOR” (USTAV ORGANICKE CHEMIE A BIOCHEMIE AV CR, V.V.I., priority 2019, published 2022).
Entries after “also recorded” stand apart in the source; their conditions may differ.

Assays:
[1] = test system: Salmonella typhimurium strains TA 98, TA 100, TA 1535, TA 1537 and Escherichia coli WP2 uvrA strain; assay: Bacterial Reverse Mutation Test (OECD 471)
COS-1 cells = assay: Cytotoxicity, cell viability (MTS) in COS-1; format: cell-based, African green monkey; details: Chlorocebus sabaeus, 48-h treatment, no significant effect at 30 μM/L
Description: (§1) Cell viability in HepG2 and COS-1 cells after a 48 h treatment with test compounds at a concentration from 1 up to 30 μM was determined using the modified formazan-based […] assay. […] Briefly, the cells were treated with the test compounds or vehicle alone (DMSO) for 48 h. At the end of the treatment, 20 μl of MTS reagent was added directly to each culture wells and further cultivated for 1.5 h. Finally, the absorbance of converted formazan was recorded at 490 nm by plate reader (BioTec Synergy 2. Winooski. Vt. USA). Vehicle (DMSO) and TritonX100 (0.9%; v/v) controls of cell viability were set to be 100% and 0%, respectively.

[2] = Human plasma protein binding (micro-equilibrium dialysis); format: in vitro ADME; details: at 1 μM/L
HepG2 cells = assay: Cytotoxicity, cell viability (MTS) in HepG2; format: cell-based; details: Homo sapiens, 48-h treatment, no significant effect at 30 μM/L
Description: as §1

[3] = test system: CYP2B6 mRNA (CAR target gene); assay: RT-qPCR of CYP2B6 mRNA in primary human hepatocytes; format: cell-based; details: 48 hours, 1 and 5 μM/L (FIG. 4)
Source text: Delta-delta method and GAPDH/Gapdh or B2M/B2m housekeeping genes were used for relative quantification. Data are expressed as fold up-/down-regulation compare to vehicle-treated samples/mice.

estradion α receptor = molecular target: T1, estradion α receptor (Homo sapiens, UniProt P03372); assay: Luciferase reporter assay with GAL4 construct with LBD, estradion α receptor; format: cell-based; details: 10 μM/L
T1 construct: luciferase reporter assays with a GAL4 constructs with LBD of tested nuclear receptors; expressed in transfected cells
T1 sequence (P03372 311-547 limits assumed): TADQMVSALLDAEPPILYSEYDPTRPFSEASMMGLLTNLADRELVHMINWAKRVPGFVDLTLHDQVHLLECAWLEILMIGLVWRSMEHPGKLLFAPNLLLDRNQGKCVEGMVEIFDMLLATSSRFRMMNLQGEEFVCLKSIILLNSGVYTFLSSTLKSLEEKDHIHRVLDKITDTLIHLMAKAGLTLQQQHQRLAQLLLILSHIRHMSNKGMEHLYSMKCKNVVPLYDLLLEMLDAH

[4] = test system: thyroid hormone receptors; assay: Luciferase reporter assay with GAL4 construct with LBD, thyroid hormone receptors; format: cell-based, human; details: 10 μM/L
human androgen receptor = molecular target: T2, human androgen receptor (Homo sapiens, UniProt P10275); assay: Luciferase reporter assay with GAL4 construct with LBD, androgen receptor; format: cell-based; details: 10 μM/L
T2 construct: luciferase reporter assays with a GAL4 constructs with LBD of tested nuclear receptors; expressed in transfected cells
T2 sequence (P10275 669-900 limits assumed): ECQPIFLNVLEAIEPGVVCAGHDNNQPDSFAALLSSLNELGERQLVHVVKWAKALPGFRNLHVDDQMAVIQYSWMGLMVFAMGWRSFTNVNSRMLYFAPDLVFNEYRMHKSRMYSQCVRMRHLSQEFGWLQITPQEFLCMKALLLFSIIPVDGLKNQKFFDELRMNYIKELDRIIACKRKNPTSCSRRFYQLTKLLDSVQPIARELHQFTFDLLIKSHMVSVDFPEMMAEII

PPARα = molecular target: T3, PPARα (Homo sapiens, UniProt Q07869); assay: Luciferase reporter assay with GAL4 construct with LBD, PPARα; format: cell-based; details: 10 μM/L
T3 construct: luciferase reporter assays with a GAL4 constructs with LBD of tested nuclear receptors; expressed in transfected cells
T3 sequence (Q07869 239-466 limits assumed): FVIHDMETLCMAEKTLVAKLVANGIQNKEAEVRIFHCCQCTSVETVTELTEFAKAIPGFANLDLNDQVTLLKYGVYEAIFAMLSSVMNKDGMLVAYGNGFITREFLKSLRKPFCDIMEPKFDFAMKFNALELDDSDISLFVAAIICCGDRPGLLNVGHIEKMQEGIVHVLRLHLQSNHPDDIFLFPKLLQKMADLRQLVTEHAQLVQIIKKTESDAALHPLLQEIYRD

live X receptor α = molecular target: T4, live X receptor α (Homo sapiens, UniProt Q13133); assay: Luciferase reporter assay with GAL4 construct with LBD, live X receptor α; format: cell-based; details: 10 μM/L
T4 construct: luciferase reporter assays with a GAL4 constructs with LBD of tested nuclear receptors; expressed in transfected cells
T4 sequence (Q13133 209-447 limits assumed): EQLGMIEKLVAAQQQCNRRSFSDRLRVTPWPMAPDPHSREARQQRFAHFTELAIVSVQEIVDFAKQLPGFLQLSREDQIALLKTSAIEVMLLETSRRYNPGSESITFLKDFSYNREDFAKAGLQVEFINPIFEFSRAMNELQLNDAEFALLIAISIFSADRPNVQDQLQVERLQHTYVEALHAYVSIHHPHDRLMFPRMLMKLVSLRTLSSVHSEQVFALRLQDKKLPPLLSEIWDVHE

[5] = format: in vivo
Description: Livers were sampled 24 hours after the last application into liquid nitrogen. In case of i.p. Glucose Tolerance test (IPGTT), each mouse on chronic high fat diet received i.p. application of 20% glucose solution at the dose of lg glucose per kg b.w. Blood glucose concentration was analyzed with a glucometer from blood sampled from the tail. In case of i.p. Isulin Tolerance test (IPITT), mice received insulin administered via i.p. application in the dose of 0.75 mU/g b.w.

[6] = Metabolic stability in human liver S9 fraction; format: in vitro ADME; details: read-out: T1/2 in human liver S9 fraction
[7] = molecular target: T5, human potassium channel hERG (Homo sapiens, UniProt Q12809); assay: FluxOR II Green Potassium Ion Channel Assay with HEK293-hERG cells; format: cell-based; details: at 20 μM/L
T5 construct: expressed in transfected cells; host or cells: HEK293-hERG
T5 sequence (Q12809 whole entry): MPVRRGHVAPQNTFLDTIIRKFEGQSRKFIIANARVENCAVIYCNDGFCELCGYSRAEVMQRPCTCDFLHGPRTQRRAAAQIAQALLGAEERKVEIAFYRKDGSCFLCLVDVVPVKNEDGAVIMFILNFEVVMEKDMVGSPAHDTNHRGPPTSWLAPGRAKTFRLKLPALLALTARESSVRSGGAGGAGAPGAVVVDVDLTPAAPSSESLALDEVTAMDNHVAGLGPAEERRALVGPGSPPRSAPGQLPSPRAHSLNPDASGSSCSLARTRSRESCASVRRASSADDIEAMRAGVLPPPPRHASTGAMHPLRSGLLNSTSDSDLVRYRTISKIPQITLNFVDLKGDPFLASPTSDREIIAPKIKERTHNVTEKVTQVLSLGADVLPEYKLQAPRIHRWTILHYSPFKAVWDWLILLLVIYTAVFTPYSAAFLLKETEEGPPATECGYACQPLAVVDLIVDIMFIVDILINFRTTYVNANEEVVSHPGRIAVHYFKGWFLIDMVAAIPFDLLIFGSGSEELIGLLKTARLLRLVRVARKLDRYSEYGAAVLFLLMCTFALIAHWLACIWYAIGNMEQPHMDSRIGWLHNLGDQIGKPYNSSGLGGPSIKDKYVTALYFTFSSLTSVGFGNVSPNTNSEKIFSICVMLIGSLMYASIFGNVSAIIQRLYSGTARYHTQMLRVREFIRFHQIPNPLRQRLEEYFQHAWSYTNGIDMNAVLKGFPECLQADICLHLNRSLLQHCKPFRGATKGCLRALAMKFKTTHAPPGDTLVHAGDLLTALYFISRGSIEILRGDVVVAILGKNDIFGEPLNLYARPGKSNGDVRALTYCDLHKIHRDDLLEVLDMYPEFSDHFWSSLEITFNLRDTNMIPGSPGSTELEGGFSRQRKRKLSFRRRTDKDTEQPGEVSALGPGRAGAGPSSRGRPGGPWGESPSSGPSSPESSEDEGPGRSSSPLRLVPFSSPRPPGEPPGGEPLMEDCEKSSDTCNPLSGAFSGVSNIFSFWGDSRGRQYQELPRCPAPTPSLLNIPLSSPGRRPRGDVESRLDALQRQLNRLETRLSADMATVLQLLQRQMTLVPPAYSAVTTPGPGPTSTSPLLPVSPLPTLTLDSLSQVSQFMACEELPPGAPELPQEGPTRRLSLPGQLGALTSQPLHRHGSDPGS
Description: For compound of EXAMPLE 93, The FluxOR™ II Green Potassium Ion Channel Assay with HEK293-hERG cells (stably expressing human potassium channel hERG) seeded on Poly-D-Lysine-coated 384-well microplates (Corning, Cat. #356663) was used according to the manufacturer's instructions. hERG stimulation buffer containing thallium and potassium was added and the intracellular fluorescence was measured.

[8] = test system: CYP3A4, CYP1A2, CYP2C9, CYP2C19, CYP2C8, CYP2D6, CYP2B6 (panel); assay: in vitro; details: both, human, pooled human liver microsomes
farnesoid X receptor = molecular target: T6, farnesoid X receptor (Homo sapiens, UniProt Q96RI1); assay: Luciferase reporter assay with GAL4 construct with LBD, farnesoid X receptor; format: cell-based; details: 10 μM/L
T6 construct: luciferase reporter assays with a GAL4 constructs with LBD of tested nuclear receptors; expressed in transfected cells
T6 sequence (Q96RI1 262-486 limits assumed): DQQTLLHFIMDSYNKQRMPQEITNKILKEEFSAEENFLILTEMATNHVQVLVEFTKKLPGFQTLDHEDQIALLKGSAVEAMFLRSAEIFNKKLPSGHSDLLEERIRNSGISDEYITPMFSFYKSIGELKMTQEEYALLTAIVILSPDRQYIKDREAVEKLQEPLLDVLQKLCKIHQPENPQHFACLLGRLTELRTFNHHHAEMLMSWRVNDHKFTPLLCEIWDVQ

live X receptor β = molecular target: T7, live X receptor β (Homo sapiens, UniProt P55055); assay: Luciferase reporter assay with GAL4 construct with LBD, live X receptor β; format: cell-based; details: 10 μM/L
T7 construct: luciferase reporter assays with a GAL4 constructs with LBD of tested nuclear receptors; expressed in transfected cells
T7 sequence (P55055 222-460 limits assumed): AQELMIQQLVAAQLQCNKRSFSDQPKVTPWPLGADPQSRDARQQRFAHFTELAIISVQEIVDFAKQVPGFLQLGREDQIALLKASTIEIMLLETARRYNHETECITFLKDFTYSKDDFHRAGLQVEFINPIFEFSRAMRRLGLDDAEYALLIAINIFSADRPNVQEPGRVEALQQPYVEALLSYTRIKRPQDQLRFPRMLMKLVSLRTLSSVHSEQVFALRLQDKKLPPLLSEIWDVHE

[9] = Repeated Dose 7-day Oral Toxicity Study in Rats; format: in vivo; details: 1 and 10 mg/kg
Description: The studies were conducted on female rats.

PPARγ = molecular target: T8, PPARγ (Homo sapiens, UniProt P37231); assay: Luciferase reporter assay with GAL4 construct with LBD, PPARγ; format: cell-based; details: 10 μM/L
T8 construct: luciferase reporter assays with a GAL4 constructs with LBD of tested nuclear receptors; expressed in transfected cells
T8 sequence (P37231 238-503 limits assumed): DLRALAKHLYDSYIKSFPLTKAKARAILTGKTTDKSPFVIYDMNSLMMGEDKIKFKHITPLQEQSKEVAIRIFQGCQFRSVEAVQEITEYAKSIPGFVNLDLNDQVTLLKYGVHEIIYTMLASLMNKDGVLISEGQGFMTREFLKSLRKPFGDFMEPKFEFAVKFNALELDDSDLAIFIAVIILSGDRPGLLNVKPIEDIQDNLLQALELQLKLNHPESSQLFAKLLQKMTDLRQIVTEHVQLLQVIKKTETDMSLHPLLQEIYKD

[10] = test system: differentiated HepaRG cells; assay: Viability/cytotoxicity in differentiated HepaRG cells; format: cell-based, human; details: 48 h treatment
human CYP3A4 = molecular target: T9, human CYP3A4 (Homo sapiens, UniProt P08684); assay: Commercial CYP450-Glo inhibition assay, CYP3A4; format: in vitro ADME
T9 construct: purchased Promega V8802
T9 sequence (P08684 whole entry): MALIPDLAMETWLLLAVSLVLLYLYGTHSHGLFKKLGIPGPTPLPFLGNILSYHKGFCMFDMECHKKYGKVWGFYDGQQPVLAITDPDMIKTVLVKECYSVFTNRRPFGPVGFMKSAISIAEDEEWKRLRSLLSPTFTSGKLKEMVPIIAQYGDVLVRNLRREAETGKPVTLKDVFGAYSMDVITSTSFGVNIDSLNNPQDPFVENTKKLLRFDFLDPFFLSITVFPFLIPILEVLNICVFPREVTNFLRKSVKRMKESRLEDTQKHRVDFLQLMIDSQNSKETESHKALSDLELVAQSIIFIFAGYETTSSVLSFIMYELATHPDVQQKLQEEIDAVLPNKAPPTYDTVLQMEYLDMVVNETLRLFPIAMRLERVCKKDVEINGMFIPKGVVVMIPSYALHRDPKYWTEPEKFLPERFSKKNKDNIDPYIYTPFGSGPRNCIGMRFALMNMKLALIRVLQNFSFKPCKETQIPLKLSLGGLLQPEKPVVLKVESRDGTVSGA

vitamin D receptor = molecular target: T10, vitamin D receptor (Homo sapiens, UniProt P11473); assay: Luciferase reporter assay with GAL4 construct with LBD, vitamin D receptor; format: cell-based; details: 10 μM/L
T10 construct: luciferase reporter assays with a GAL4 constructs with LBD of tested nuclear receptors; expressed in transfected cells
T10 sequence (P11473 127-423 limits assumed): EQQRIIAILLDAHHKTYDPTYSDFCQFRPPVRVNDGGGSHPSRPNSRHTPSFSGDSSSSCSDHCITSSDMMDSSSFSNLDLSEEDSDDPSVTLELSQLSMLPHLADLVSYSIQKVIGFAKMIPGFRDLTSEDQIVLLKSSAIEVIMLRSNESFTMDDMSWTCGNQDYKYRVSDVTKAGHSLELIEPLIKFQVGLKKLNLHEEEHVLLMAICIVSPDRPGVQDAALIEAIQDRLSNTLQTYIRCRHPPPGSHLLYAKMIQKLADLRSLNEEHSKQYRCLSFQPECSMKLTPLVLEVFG

in vivo = details: C57BL/6, mouse, 10 mg/kg
[11] = Stability in human plasma; format: in vitro ADME; details: over 120 minutes
[12] = Pharmacokinetic studies in mice
[13] = test system: CAR+A-EGFP fusion protein; assay: CAR+A-EGFP translocation into nucleus in COS-1 cells; format: cell-based; details: 10 μM/L, 48 h
[14] = 10 mg/kg b.w. by gavage for 4 weeks, 60% high-fat diet 8 weeks

Structure (SMILES): NC(=O)c1cc(Cn2cc(-c3c(-c4ccc(Cl)cc4)nc4cc(F)ccn34)nn2)ccc1Cl [Example 93, 2-Chloro-5-((4-(2-(4-chlorophenyl)-7-fluoroimidazo[1,2-a]pyridin-3-yl)-1H-1,2,3-triazol-1-yl)methyl)benzamide]
- mutagenicity in Bacterial Reverse Mutation Test ([1]; all indicator strains, with and without metabolic activation): non-mutagenic
- number of revertants compared to solvent controls (Rt/Rc) ([1]; with or without S9 fraction): < 2
- IC50 (COS-1 cells): > 30 µM
- fraction unbound at 1 μM [2]: 0.01
- IC50 (HepG2 cells): > 30 µM
- CYP2B6 mRNA in primary human hepatocytes [3]: up-regulates
- activation of estradion α receptor (estradion α receptor): do not activate
- activation of thyroid hormone receptors [4]: do not activate
- activation of human androgen receptor (human androgen receptor): do not activate
- activation of PPARα (PPARα): do not activate
- activation of live X receptor α (live X receptor α): do not activate
- insulin sensitivity in IPGTT and IPITT [5, 14]: stimulatory effect on insulin sensitivity; also recorded: alleviates insuline resistance and stimulates the effect of insuline
- liver hypertrophy (liver-to-body weight ratio) [5, 14]: does not stimulate significantly liver hypertrophy
- Mki67 mRNA in mouse liver ([5]; 10 mg/kg, 4 weeks): did not significantly up-regulate
- RNA level of Fasn in mouse liver ([5]; 10 mg/kg, 4 weeks): significantly decrease
- RNA level of Scd1 in mouse liver ([5]; 10 mg/kg, 4 weeks): significantly decrease
- hepatotoxicity (ALT, AST, ALP, LDH biochemical markers) ([5]; 10 mg/kg, 4 weeks): does not display hepatotoxicity
- plasma LDL ([5]; 10 mg/kg, 4 weeks): has an effect; also recorded: decreases
- plasma cholesterol ([5]; 10 mg/kg, 4 weeks): has an effect; also recorded: decreases
- body weight ([5]; 10 mg/kg, after 4 weeks of application): decrease body weight; also recorded: reduces the body weight
- half-life at 2 μM [6]: > 2.83 h
- interference with hERG activity (FluxOR, HEK293-hERG) [7]: do not interfere with hERG activity
- IC50 [8]: > 10 µM
- activation of farnesoid X receptor (farnesoid X receptor): do not activate
- activation of live X receptor β (live X receptor β): do not activate
- clinical signs of toxicity, Repeated Dose 7-day Oral Toxicity Study in Rats [9]: No significant clinical signs of toxicity
- activation of PPARγ (PPARγ): do not activate
- viability/cytotoxicity in differentiated HepaRG cells [10]: no effect on viability/cytotoxicity
- IC50 (human CYP3A4): > 10 µM
- activation of vitamin D receptor (vitamin D receptor): do not activate
- half-life (in vivo; ip): 3.62 h
- half-life (in vivo; oral): 2.83 h
- stability in human plasma [11]: stable
- Bioavailability (F) based on AUCp.o./AUCi.p. ratio ([12]; 10 mg/kg, C57BL/6N mice): 98.6%
- delivery into the liver and bile ([12]; FIG. 6): excellent delivery into the liver and bile
- CAR+A-EGFP fusion protein translocation into nucleus [13]: significantly stimulates
